# Assay results: a melting point compilation (Tetko et al.)
row,SMILES,melting point [°C]
1,O=C(Nc1c[nH]c(=O)[nH]c1=O)C(F)(F)C(F)(F)C(F)(F)C(F)(F)C(F)(F)C(F)(F)C(F)(F)C(F)(F)F,250 to 252
2,CC(=O)c1ccc(-c2ccccc2OC(F)(F)F)o1,40 to 47
3,O=C(NNC(=O)c1ccc(Cl)cc1)c1ccc(Cl)cc1,260
4,COc1cc(CO)cc(Cl)c1O,117
5,Cc1cc(C)n2nc(N)c(/N=N/c3ccccc3C)c2n1,256
6,O=C1NCC(CCl)O1 (stereo unspecified),101 to 105
7,O=Cc1ccc(F)cc1Cl,62
8,CC(=O)Nc1ccccc1-c1onc(-c2ccccc2)c1-c1ccccc1,190
9,Cc1cc(N)cc(C)n1,192
10,CC(C)(c1ccccc1)c1ccccc1,29
11,O=C(O)C(O)C(F)(F)F (stereo unspecified),69
12,NCc1ccc(S(N)(=O)=O)cc1,151
13,COC12C(COC(N)=O)C3=C(C(=O)C(C)=C(Nc4cnccc4N)C3=O)N1CC1NC12 (stereo unspecified),159
14,CC(=O)C(C)O (stereo unspecified),15
15,O=C(O)c1cc(F)c(Cl)nc1Cl,154 to 155
16,CC(F)(Cl)CCl (stereo unspecified),-91.7
17,Cc1ccccc1C#N,-13.5
18,CCC1C(=CC(=O)CI)N(C)C(C)(C)N1O (stereo unspecified),126 to 127
19,CC(=O)c1ccc(S(=O)(=O)NC(=O)NC2CCCCC2)cc1,188
20,CCCF,-159
21,O=C(Cl)c1cnccn1,150
22,COC(=O)C=Cc1ccc(C=CC(=O)OC)c(NC(C)=O)c1,168
23,Cn1c(Cl)cc(=O)n(C)c1=O,110
24,Cc1ccc2c(Cl)cc(Cl)c(O)c2n1,114
25,Fc1cc(I)ccc1Br,36 to 41
26,O=C(O)CCCCCCCCCCCCC(=O)O,127

row,SMILES,melting point [°C]
1,Oc1cc(C(F)(F)F)nc2ccc(Br)cc12,290
2,c1c2c(cc3c1OCO3)CC2,62
3,OCC(F)(F)C(F)(F)C(F)(F)C(F)(F)C(F)(F)C(F)(F)CO,80 to 83
4,NC(=O)c1cccc(C(=O)O)c1,280
5,Cc1oc(S(=O)(=O)N2CCCCC2)cc1C(=O)O,194 to 195
6,O=c1[nH]c2ccccc2n1CCCN1CCN(C(c2ccccc2)c2ccccc2)CC1,154
7,Cn1cnc2[nH]c(N)nc(=O)c21,370
8,NNc1ncccc1[N+](=O)[O-],165
9,COC(=O)c1c(O)cc(O)cc1O,177
10,Nc1ncnc2c1ncn2C1OC(CO)C(OP(=O)(O)O)C1O (stereo unspecified),197
11,O=Cc1ccc(OC2CCOCC2)cc1,95 to 96
12,N#Cc1ccc(-c2ccc(C(F)(F)F)cn2)cc1,123 to 124
13,NS(=O)(=O)c1cc(Cl)cc(Cl)c1,170 to 172
14,O=C(O)C1=CCCCC1,38
15,CC(N)P(=O)(O)O (racemic),283 to 284
16,CC12CC(=CO)C(=O)CC1CCC1C2CCC2(C)C1CCC2(C)O (stereo unspecified),188
17,CC(C)CCCC(C)C1CCC2C3CC(O)C4=CC(=O)CCC4(C)C3CCC12C (stereo unspecified),189 to 193
18,Cc1ccc(-c2ccc(C=C3C(=O)OC(C)(C)OC3=O)o2)cc1,166
19,Cc1ccc(Sc2ncccc2C(=O)O)cc1,218 to 221
20,Cc1ccc(S(=O)(=O)NN=Cc2ccccc2[N+](=O)[O-])cc1,153 to 156
21,N#CC(Cc1ccc([N+](=O)[O-])cc1)c1ccccc1 (stereo unspecified),134
22,Nc1nc2cc3nc(N)c(-c4ccccc4)cc3cc2cc1-c1ccccc1,301
23,CC(C)(C)c1cc(O)c(O)c(O)c1,135
24,CCCCC(=O)N(Cc1ccc(-c2ccccc2-c2nnn[nH]2)cc1)C(C(=O)O)C(C)C (stereo unspecified),116
25,O=C1NN(c2ccccc2)C(=O)C1=Cc1ccc(F)cc1,300
26,Cc1nsc(N)n1,202 to 209

row,SMILES,melting point [°C]
1,CC(OC(=O)Nc1ccccc1)c1cccc(C(C)OC(=O)Nc2ccccc2)c1 (stereo unspecified),136
2,COC(=O)c1sccc1Br,50 to 51
3,C/C(=N\c1cccc(C(=O)O)c1)c1c(O)c2ccccc2n(-c2ccccc2)c1=O,242 to 243
4,CC1CN(c2ccccc2)NC1=O (stereo unspecified),133 to 136
5,CN1CCC(=O)NC1=O,171
6,Nc1ncnc2c1ncn2C1CC(O)C(COP(=O)(O)O)O1 (stereo unspecified),148
7,O=C(Cl)OCC1c2ccccc2-c2ccccc21,63
8,Cc1ccc2cccc-2cc1,82 to 83
9,Cc1cc(C(=O)O)cc(C)c1[N+](=O)[O-],224
10,O=C(O)C(F)(F)C(F)(F)C(F)(F)C(F)(F)C(F)(F)C(F)(F)C(F)(F)C(F)(F)C(F)(F)C(F)(F)C(F)(F)C(F)(F)C(F)(F)F,130
11,CCC1CN2CCC1CC2C(O)c1ccnc2ccc(OCCC(C)C)cc12 (stereo unspecified),152
12,O=[N+]([O-])c1ccc(NN=Cc2cccc3c(Br)cccc23)c([N+](=O)[O-])c1,222
13,CC(C)(C)c1ccc(OCC#N)cc1,69
14,NC=S,26.5
15,O=[N+]([O-])c1cc([N+](=O)[O-])c(/C=C/c2ccccc2)cc1/C=C/c1ccccc1,193
16,Cc1ccccc1CP(=O)(O)O,195 to 196
17,COC(=O)c1cc(O)ccc1O,87
18,Cn1cc(Br)c(CO)n1,94 to 95
19,CC(O)c1cccc(N)c1 (stereo unspecified),68
20,CNCC(O)c1ccccc1 (racemic),74 to 76
21,O=C1Nc2ccc(I)cc2C1=O,285
22,OCc1cc(O)cc(O)c1,181 to 186
23,CCc1cc2ccccc2c2ccccc12,62.5
24,O=c1c(C2CC(c3ccc(-c4ccccc4)cc3)Cc3ccccc32)c(O)oc2ccccc12 (stereo unspecified),213
25,COc1cc(F)ccc1C=O,61
26,Cn1ccnc1C(=O)O,104 to 106

row,SMILES,melting point [°C]
1,CC(=O)Oc1ccc(OC(C)=O)c(C)c1,41
2,CN(C)c1ccc(C=C/C(=N\Nc2ccccc2)c2ccccc2)cc1,127 to 128
3,S=C1NC2=C(CCCC2=Cc2ccccc2)C(c2ccccc2)N1 (stereo unspecified),190 to 192
4,NNc1ccccn1,46.6
5,Clc1cc(Cl)nc(-c2ccccc2)n1,96.9
6,Cc1c(Br)cc([N+](=O)[O-])c(N)c1C,153
7,CC(=O)NC(Cc1ccc2c(c1)OCO2)C(=O)O (stereo unspecified),92
8,CC(C)(C)OC(=O)NC(Cc1ccc(Br)s1)C(=O)O (stereo unspecified),70.3
9,CCOC(=O)Nc1ccc2cc3ccc(NC)c(CO)c3nc2c1,145
10,Nc1cccnc1Oc1ccc(F)cc1F,96 to 97
11,COc1ccc2c(CC(=O)O)coc2c1,123 to 124
12,CC1(C)CCC(C)(C)c2cc(S(=O)(=O)Cl)ccc21,78 to 80
13,Cc1ccc(C(C)CC(=O)C=Cc2ccccc2)cc1 (stereo unspecified),88
14,CC(C)N1C(=O)N(c2ccccc2)CSC1=NC(C)(C)C,105
15,CC1CCS(=O)(=O)C1 (stereo unspecified),1
16,O=Cc1cn2ccccc2n1,78 to 79
17,C[C@]12CCC(=O)CC1CCC1=C2CC[C@]2(C)C(=O)CC[C@@H]12 (stereo partly specified),148
18,CC(=O)OCC12CC(OC(=O)CC(C)C)C(C)=CC1OC1C(O)C(OC(C)=O)C2(C)C12CO2 (stereo unspecified),152
19,CCCCCCCCOC=O,-39.1
20,N#Cc1cc2ccccc2c2ccccc12,111
21,NC(=O)c1cc([N+](=O)[O-])ccc1Cl,179
22,CC1=CC(C)(C)Nc2ccccc21,26.5
23,C/C(OCCc1ccc([N+](=O)[O-])cc1)=C(\C#N)c1ccccc1,138
24,COc1cc([C@@H](O)[C@H](CO)Oc2c(OC)cccc2OC)cc(OC)c1O,217
25,N#Cc1ccc(O)c(F)c1F,147
26,O=C1OC(=O)c2ncccc21,134 to 138

row,SMILES,melting point [°C]
1,Cc1ccc2oc3c(c2c1)-c1oc(C)cc1C(C)(c1ccccc1)CC3 (stereo unspecified),119
2,COC(=O)[C@@H]1C[C@@H]2CSCN2[C@@]12C(=O)c1cccc3cccc2c13,172
3,CC1OC(OC2CCC3(C=O)C4CCC5(C)C(C6=CC(=O)OC6)CCC5(O)C4CCC3(O)C2)C(O)C(O)C1O (stereo unspecified),238
4,Nc1ccc(O)c2c1C(=O)c1ccccc1C2=O,216
5,COc1ccc(-c2cc(=O)c3c(O)c(OC)c(OC)cc3o2)cc1O,191
6,COc1cccc2cc(C(=O)C3CC(C)(c4c(C)cc(C)cc4C)C3)oc12 (stereo unspecified),96 to 97
7,COc1ccc(-c2ccc(S(=O)(=O)NC(CCSC)C(=O)O)cc2)cc1 (stereo unspecified),174
8,CC(NC(=O)C(C)NC(=O)C(N)CCP(C)(=O)O)C(=O)O (stereo unspecified),160
9,Cc1cc(C)cc(C2Oc3c(Cl)c(Cl)c(Cl)c(Cl)c3O2)c1,160
10,CC(CC(C(N)=O)(c1ccccc1)c1ccccc1)N(C)C (stereo unspecified),137
11,CC1=C(C#N)Cc2ccccc21,63 to 63.6
12,COc1cccc(OC)c1N,77
13,O=C(O)c1cccc(S(=O)(=O)Oc2ccc3ccccc3c2)c1,155
14,COc1cc(N=C=S)c(C(c2ccc(C)o2)c2ccc(C)o2)cc1OC,91
15,CCC(Br)(CC)C(N)=O,67
16,CC(=O)C1C(=O)c2cccc([N+](=O)[O-])c2C1=O (stereo unspecified),147 to 150
17,O=C1OC(=O)c2c1cccc2[N+](=O)[O-],160 to 165
18,N#Cc1ccccc1OC1CCOCC1,51 to 55
19,Cn1c(CO)cnc1S,220 to 222
20,O=C(C=Cc1ccc(-c2ccc(Cl)cc2)o1)c1ccccc1,128 to 129
21,O=C(c1ccccc1)N(CC(=Nc1ccccc1)Nc1ccccc1)c1ccccc1,142
22,COC(=O)CCCCC(=O)O,9
